Results from patent US20040141944A1, “Inhibition of xenoreactive antibodies” (priority 1998, published 2004).

Assays:
[1] = test system: circulating anti-Gal ASC (IgM and IgG); experiment: in vivo effects of TPC administration on circulating anti-Gal ASC (ELISPOT); parameters: species or system cynomologous monkeys
Description: To each well of the first 10 columns of a sterile hydrazine modified polystyrene 96-well plate (Corning Costar, Cambridge, Mass.), 100 μL per well of a solution containing 3.2 mg/mL αGal(1,3)Gal β 1-4 GlcNAc, 3.1 mg/mL EDC and 2.4 mg/mL NHS were added in a darkened cold room and the reaction proceeded for four hours. After careful washing with sterile H2O, the plates were completely covered with plastic strips and stored at 4° C. until use. Plates were blocked with sterile 400 ul/well of PBS/1% HSA for 2 hours at 37° C. Peripheral blood mononuclear cells were isolated by Ficoll-Hypaque (specific gravity, 1.077 g/mL; Pharmacia Fine Chemicals, Piscatawy, N.J.) density gradients at 400 g for 30 min. at 22° C. Low density mononuclear cells at the interfaces were harvested, washed twice by centrifugation (400 g for 10 min.) and resuspended in serum-free complete culture medium consisting of RPMI 1640 (GIBCO, Grand Island, N.Y.) supplemented with 1% HSA, 2 mM L-glutamine, and 100 U/mL penicillin/100 ug/mL streptomycin (GIBCO, Grand Island, N.Y.). Manual hemacytometer cell counts and viability determinations were performed using trypan blue exclusion dye. Thereafter, serial dilutions of PBMNCs (starting at 5×10^5 cells) in 100 ul of serum-free complete culture medium were added to each well and incubated for 18-24 hours at 37° C. in 5% CO2. After washing 8 times using PBS/0.1% Tween-20, the plates were incubated with biotinylated isotype specific goat anti-human Abs (biotin goat anti-human IgM Cat#62-7540; biotin goat anti-human IgG (H&L) Cat# 62-7140, Zymed, San Francisco, Calif.)(1:1000) at 37° C. for 4 hours. After washing, streptavidin conjugated alkaline phosphatase (Cat# 43-4322, Zymed, San Francisco, Calif.) (1:1000) was added for 30 min. at 37° C. Finally, after washing an additional 8 times with PBS/0.1% Tween-20, 5-Bromo-4-chloro-3indolyl-phosphate (Cat# B-8503, Sigma, St. Louis, Mo.) dissolved in 1% low-melt sea-plaque agarose (FMC Bioproducts, Cat#50101) was added as gel substrate to each well. Plates were incubated overnight in the dark at room temperature and single Ab-secreting, spot forming cells (ASC) were visualized, analyzed and counted under low magnification using an inverted phase microscope. Data represents total isotype specific anti-gal Ab-secreting cells/10^6 PBMNCs, calculated from serially diluted cell samples.
To investigate the in vivo response of circulating anti-Gal ASC to TPC administration, we measured the number of ASC per 10^6 peripheral blood mononuclear cells isolated from cynomologous monkeys treated with either TPC (410S) or blocked-PEG as control. Blocked PEG is a 4-arm, 10,000 MW PEG-amine that was reacted with acetic anhydride in order to block the amine-groups of the PEG. Briefly, heparinized peripheral blood samples (2-3 mL) from TPC and PEG treated monkeys were obtained prior to experimentation, after 6 dosages of TPC, 7 days following porcine heart transplantation with daily infusions, 7 days post infusion termination, and 18 days post infusion. Mononuclear cells were isolated via Ficoll-Hypaque gradient centrifugation and assayed for anti-Gal IgM and IgG ASC using the ELISPOT assay as described in Example 15. […] In contrast, the number of IgG ASC in the PEG treated animal increased 14.9-fold with no detectable change in the number of IgM ASC. Seven days after the termination of TPC treatment, 14 days post transplantation, circulating IgG and IgM ASC were 27-84% and 1.3-9.8% of baseline values, respectively. In the PEG treated monkey, IgG ASC were 4.4 above baseline and IgM ASC levels reduced 51%.

IgM XNAs = experiment: effect of TPC on xenoreactive antibody level in baboons; assay type: in vivo, baboon
Text: The TPC molecule 410S was synthesized as described in Example 5 above. Baboons were first immunoapheresed using α-gal-columns in order to remove circulating αGal antibodies, and to set a basis for comparison of the ability of TPC to remove αGal antibodies from the circulation.
The procedures for treating and transplanting the baboons are described in Shu S. Lin et al., Transplant Immunol. 5:212-218, 1997. Descriptions of methods for making αGal-columns are contained in U.S. Pat. Nos. 5,695,759 and 5,651,968, which are herein incorporated by reference. Briefly, each baboon subject was prepared for plasma treatment by induction of anesthesia with ketamine HCl and pentamine, and anesthesia was then maintained during all procedures under inhalation and Forane™ gas. The subject's bloodstream was asceptically connected by intravenous puncture to a plasmapheresis machine which separated the plasma from the cells and platelets. The plasma was asceptically conducted to an α-gal column; effluent from the column was pumped and remixed on-line with the cells and platelets, and reinfused to the subject. This procedure was carried out continuously for 2-3 plasma volumes. The blood flow rate of 75-100 cc/min (with a plasma flow rate of 35-50 cc/min), was well tolerated by the subject. The entire column procedure lasted 1-1.5 hours.
250 mg of TPC (410S, as described in Example 5 above) was administered as noted in FIGS. 12 and 13.

[2] = test system: kidney from a transgenic pig expressing human CD59, human CD46 and human DAF; experiment: transgenic pig kidney transplant into TPC-treated baboon; assay type: in vivo
Description: Immunoapheresis #1 reduced circulating IgM XNA levels to 40% of pretreatment levels. Two days later, a rebound to about 50% of pretreatment levels was observed, and after a second immunoapheresis plus administration of 250 mg TPC, circulating IgM xXNA levels were undetectable. Three days later, a rebound in IgM XNA to 35% pretreatment levels occurred, and administration of 250 mg TPC brought these levels to about 5%. […] On day 31, a kidney from a transgenic pig expressing human CD59, human CD46 and human DAF was transplanted into the baboon, and a bilateral nephrectomey was performed on the baboon native kidneys. Thus, the baboon was dependent upon the porcine kidneys for physiological function.

[3] = day 7 post transplantation (porcine transgenic heart), daily TPC
[4] = seven days after termination of TPC treatment, 14 days post transplantation

## (αGal(1,3)Gal β 1-4 GlcNAc)4-PEG [Example 410S]
[1]; 18 days post TPC termination
  IgG ASC values: returned to near normal baseline values
[1]; [3]
  circulating IgG ASC levels decreased: 70-99.7%
  circulating IgM ASC levels decreased: 98.5-100%
[1]; following 6 dosages of TPC over 18 days
  circulating anti-Gal ASC (IgM and IgG) numbers inhibited: 70-99%
[1]; [4]
  circulating IgG ASC, % of baseline values: 27-84%
  circulating IgM ASC, % of baseline values: 1.3-9.8%
IgM XNAs; Baboon 376-96, after next administration of 250 mg TPC
  IgM XNA, % pretreatment levels: about 5%
IgM XNAs; Baboon 376-96, after second immunoapheresis plus 250 mg TPC
  circulating IgM XNA levels: undetectable
IgM XNAs; Baboon 376-96, six subsequent administrations of 250 mg TPC every 3 or 4 days
  circulating levels of IgM XNA: lower each time
IgM XNAs; Baboon 376-96, three days after first TPC (rebound)
  IgM XNA, % pretreatment levels: 35%
IgM XNAs; Baboon 377-96, infusion of 250 mg TPC after third immunoapheresis
  levels of IgM XNAs: undetectable
IgM XNAs; Baboon 377-96, three days after the 250 mg TPC infusion (rebound)
  IgM XNA levels, % pretreatment levels: about 15%
[2]; Baboon 376-96, transplant on day 31, euthanized post-op day 4
  pathology analysis of the explanted pig kidney: no evidence of hyperacute rejection
[2]; Baboon 376-96, transplant on day 31 with bilateral nephrectomy
  function of the transplanted kidney: primary nonfunction
